Assay results from PMC4481117 (Molecular Pain, 2015).

Assays:
[1] = tested on: αMI-domain (active and nonactive forms); experiment: Solid-phase binding of active and nonactive GST-αMI-domains; conditions: immobilized peptide, 1.5 h at 22 °C, anti-GST detection, 405 nm; means of triplicates, representative of n = 4
Experimental: Fig. 2 Binding of the active and nonactive αMI-domain conformers to dynorphin. a, the 3D structure of active (PDB ID 1ido) and nonactive (PDB ID 1jlm) αMI-domains are shown as ribbon diagrams. The wells of microtiter plates were coated with different concentrations of dynorphin A (b) and the D100 fragment of fibrinogen (c). The active (●) and nonactive (○) recombinant αMI-domains containing GST fusion parts were added to the wells and incubated for 1.5 h at 22 °C. Bound αMI-domains were detected with an anti-GST mAb followed by an AP-conjugated secondary antibody. Data are the means of triplicate determinations, and error bars represent S.E. Representative experiments in b (n = 4) and c (n = 4) are shown. For multiple comparisons, individual concentrations were tested using t-test with p-value of 0.05 corrected by Bonferroni method and accepting values of 0.007 as significant (**).
Dyn A ([…]), Dyn B ([…]), and control peptide ([…]) were purchased from AnaSpec, Inc (San Jose, CA). […]
Microtiter plates were coated with different concentrations of the fibrinogen D100 fragment or Dyn A overnight at 4 °C and post-coated with 3 % BSA for 1 h. […] After washing, goat anti-mouse IgG conjugated to alkaline phosphatase was added for 1 h and the binding of the αMI-domains was detected by reaction with p-nitrophenyl phosphate measuring the absorbance at 405 nm. […]

[2] = molecular target: T1, Mac-1 (Mac-1-expressing HEK293 cells) (Homo sapiens, UniProt P05107+P11215); experiment: Adhesion of Mac-1-HEK293 cells to immobilized peptide; format: cell-based; conditions: 30 min at 37 °C
T1 construct: expressed in transfected cells
Experimental: For testing the role of glucosaminoglycans in cell adhesion, dynorphin A-coated wells were preincubated with 100 μl of 10 μg/ml of chondroitin sulfate A, chondroitin sulfate B and heparin. Aliquots (5x10^4cells) were added to the wells coated with 2 μM dynorphin A and adhesion was performed as described in A. Adhesion in the absence of Mac-1 inhibitors and glucosaminoglycans was assigned a value of 100 %. The data shown are the means ± S.E. from four separate experiments each with triplicate measurements. d , microtiter plate wells were coated with different concentrations of dynorphin B and adhesion of Mac-1-expressing and wild-type HEK293 cells was determined as described in A. The data shown are means of triplicate determinations, and error bars represent S.E. The figure is representative of 5 experiments. e. calcein-labeled Mac-1-HEK293 cells were preincubated without or with 10 μg/ml of mAb 44a and heparin, added to the wells coated with 20 μM of dynorphin B and adhesion was performed as described in A. Adhesion in the absence of inhibitors was assigned a value of 100 %.
Adhesion assays were performed essentially as described previously. […] Cells were labeled with 10 μM calcein for 30 min at 37 °C and washed twice with Hanks’ Balanced salt solution (HBSS) containing 0.1 % BSA. Aliquots (100 μl) of labeled cells (5x10^5/ml) were added to each well and allowed to adhere for 30 min at 37 °C. The non-adherent cells were removed by two washes with PBS. Fluorescence was measured in a CytoFluorII fluorescence plate reader (Perceptive Biosystems, Framingham, MA). In inhibition experiments, cells were mixed with different concentrations of peptides, NIF or mAbs for 20 min at 22 °C before they were added to the wells coated with adhesive substrates. In a separate set of experiments, after coating plates with dynorphins and post-coating with 1 % PVP, plates were incubated with 100 μl of 10 μg/ml chondroitin sulfate A, chondroitin sulfate B, or heparin for 20 min at 22 °C. After aspirating the solution, labeled cells were added and cell adhesion was analyzed as above.

[3] = tested on: Mac-1-HEK293 cells; experiment: Translocation of Dyn A into Mac-1-HEK293 cells (immunolabeling); format: cell-based, Human; conditions: 40 min at 37 °C
Experimental: Fig. 5 Translocation of Dyn A into cells. Mac-1-expressing (a) and wild-type HEK293 (b) cells were incubated with 20 μM and 100 μM of Dyn A for 40 min at 37 °C, fixed, permeabilized and incubated with anti-dynorphin antibodies followed by Alexa Fluor 488-conjugated secondary goat anti-rabbit antibodies. No labeling was detected in the absence of primary antibody. c, Enlarged images of Dyn A-accumulated Mac-1- and wild-type HEK cells shown in a and b. d, Quantification of fluorescent cells shown in a and b
Mac-1-HEK 293 and wild-type HEK 293 cells were incubated for 10 min with different concentrations (0–100 μM) of Dyn A and allowed to adhere to glass coverslips coated with poly-Lysine for 30 min. Adherent cells were fixed in 2 % paraformaldehyde solution, permeabilized with 0.1 % Tween-20, and blocked with 10 % normal goat serum plus 1 % BSA. The coverslips were incubated with 5 μg/ml polyclonal anti-Dyn A antibody followed by an secondary goat anti-rabbit antibody conjugated to Alexa Fluor 488 (1:1000). Images were taken using a Leica DM 4000B microscope (Leica, Buffalo Grove, IL).

[4] = tested on: k-opioid receptors; parameters: method as in PMID 10973443, PMID 16364815, PMID 22424981; conditions: cited from earlier work

CC[C@H](C)[C@H](NC(=O)[C@H](CCCNC(=N)N)NC(=O)[C@H](CCCNC(=N)N)NC(=O)[C@H](CC(C)C)NC(=O)[C@H](Cc1ccccc1)NC(=O)CNC(=O)CNC(=O)[C@@H](N)Cc1ccc(O)cc1)C(=O)N[C@@H](CCCNC(=N)N)C(=O)N1CCC[C@H]1C(=O)N[C@@H](CCCCN)C(=O)N[C@@H](CC(C)C)C(=O)N[C@@H](CCCCN)C(=O)N[C@@H](Cc1c[nH]c2ccccc12)C(=O)N[C@@H](CC(=O)O)C(=O)N[C@@H](CC(N)=O)C(=O)N[C@@H](CCC(N)=O)C(=O)O [Dyn A]
Difference in binding of active and nonactive αMI-domains [1]: No significant difference in binding of active and nonactive αMI-domains
Coating concentration giving saturable adhesion ([2]; Mac-1-HEK293 cells): ~ 2 μM
Adhesion of Mac-1-HEK293 cells (in words) ([2]; coated wells, calcein-labeled cells): strongly adhered
EC50 ([2]; read-out: Coating concentration required to reach 50 % of maximal cell adhesion, Mac-1-HEK293 cells, fluorescence of calcein): 0.2 to 0.5 µM
Localization of Dyn A in Mac-1-HEK293 cells ([3]; 20 μM Dyn A): primarily associated with the cell periphery
Number of Mac-1-HEK293 cells accumulating Dyn A vs wild-type ([3]; Dyn A, anti-dynorphin antibodies): significantly smaller number of Mac-1-HEK293 cells accumulated Dyn A
κ-opioid receptor binding [4]: binds preferentially to the k-opioid receptors
